Here are results for six compounds from PMC9039622 (Frontiers in Pharmacology, 2022).

Each structure is given as a SMILES string. Where only a bound is given, the exact number is not on record here.

Data set [1] in a line: In vitro incubation of prodrugs with LPL supplemented rat plasma. In kind it is in vitro ADME, Sprague Dawley rat. As to conditions: over 3 h. Here is the method:
[…] is tethered to the luminal surface of vascular endothelial cells under physiological conditions ([Bensadoun 1991]). In the current in vitro studies, rat plasma was therefore supplemented with LPL to better reflect the in vivo situation. To start hydrolysis, 10 µl of LPL solution (10,000 IU/ml) was added to a mixture of 10 µl of prodrug solution (0.1 mg/ml dissolved in acetonitrile) and 500 µl of blank Sprague Dawley rat plasma. The solution was incubated at 37°C. Samples (20 µl) of the incubation solution were taken at 0, 5, 15, 30, 60, 90, 120 and 180 min post incubation and added to 180 µl of ACN to stop lipolysis. The mixture was vortexed and centrifuged at 4,500 g for 5 min to precipitate proteins prior to analysis.
(§1) Absolute quantification of the hydrolysis products, i.e., MG derivatives and BUP-linker-COOH forms (“acid” forms) was not attempted due to lack of authentic standards. Instead, the profiles for these species were plotted based on the peak areas obtained from HPLC-MS. […] To illustrate changes to the BUP-linker-acid forms, the relative changes were plotted as the peak areas on the right-hand Y axis in Figures 3 and 5.

Data set [2] in a line: In vitro digestion of prodrugs by porcine pancreatin in simulated intestinal fluid (SIF). The data set is classed as in vitro ADME. The conditions noted are these: for MG intermediate detected in SIF: after 30 min incubation; for half-life at 1.96 µg/ml: pig, pH 6.5, SIF with porcine pancreatin, read-out: apparent half-life of MG intermediate in SIF. Here is the method: Briefly, the lipase solution was prepared by dispersion of porcine pancreatin (10,000 IU/ml) in a lipolysis buffer (pH 6.5) containing tris-maleate (2 mM), CaCl2 (1.4 mM) and NaCl (150 mM), followed by centrifugation at 2,000 g for 15 min at 5°C to provide the lipase solution as the supernatant. To start the hydrolysis, 100 µl of the lipase solution was added to a mixture of 20 µl of prodrug solution (0.1 mg/ml dissolved in acetonitrile) and 900 µl of simulated intestinal micellar solution (3 mM of sodium taurodeoxycholate and 0.75 mM of phosphatidylcholine dispersed in lipolysis buffer). The solution was incubated at 37°C. Samples (20 µl) of the incubation solution were taken at 0, 5, 10, 15, 30, 60, 90, 120 and 180 min post incubation and added to 180 µl of acetonitrile to stop lipolysis. The mixture was vortexed and centrifuged at 4,500 g for 5 min to precipitate proteins prior to analysis. The supernatant was analysed by HPLC-MS/MS for the potential products (Figure 1) of prodrug hydrolysis as described in the Supplementary Material.
as §1

Details of data set [3]: method as in earlier work. The conditions noted are these: ref Tauber, Schroder, Dusterberg and Matthes 1986b; Shackleford et al., 2003; cited from earlier work.

Broadly, the half-life is how long it takes for the measured level to halve. As for `CO[C@]12CC[C@@]3(C[C@@H]1[C@](C)(O)C(C)(C)C)[C@H]1Cc4ccc(OC(=O)CCC(=O)OC(CO)CO)c5c4[C@@]3(CCN1CC1CC1)[C@H]2O5` [BUP-C4-MG], the “BUP-linker-acid form detected in plasma” value in data set [1] is on record as “no BUP-linker-acid forms were detected”. In addition, in data set [2], the “MG intermediate detected in SIF” value is listed as “only trace quantities” and the half-life at 1.96 µg/ml is below 10 min.

For the compound `CO[C@]12CC[C@@]3(C[C@@H]1[C@](C)(O)C(C)(C)C)[C@H]1Cc4ccc(OC(=O)CCCCOC(=O)CCC(=O)OC(CO)CO)c5c4[C@@]3(CCN1CC1CC1)[C@H]2O5` [BUP-CE-C4-MG], the “BUP-linker-acid form detected in plasma” value in data set [1] was “transiently detected”. In addition, the “MG intermediate detected in SIF” value in data set [2] is given as “only trace quantities”.

For the compound `CCCCCCCCCCC(=O)O[C@H]1CC[C@H]2[C@@H]3CCC4=CC(=O)CC[C@]4(C)[C@H]3CC[C@]12C` [testosterone undecanoate], the “oral bioavailability for TST” value in data set [3] was around 5%.

Turning to `CO[C@]12CC[C@@]3(C[C@@H]1[C@](C)(O)C(C)(C)C)[C@H]1Cc4ccc(OC(=O)CC(C)CC(=O)OC(CO)CO)c5c4[C@@]3(CCN1CC1CC1)[C@H]2O5` (stereo partly drawn) [BUP-C5bMe-MG], in data set [1], the “BUP-linker-acid form detected in plasma” value is “no BUP-linker-acid forms were detected”. Moreover, the half-life at 1.96 µg/ml in data set [2] was above 60 min.

With `CO[C@]12CC[C@@]3(C[C@@H]1[C@](C)(O)C(C)(C)C)[C@H]1Cc4ccc(OC(=O)CC(C)(C)c5c(C)cc(C)cc5OC(=O)CCC(=O)OC(CO)CO)c5c4[C@@]3(CCN1CC1CC1)[C@H]2O5` [BUP-TML-C4-MG], the “BUP-linker-acid form detected in plasma” value in data set [1] is listed as “no BUP-linker-acid forms were detected”. Moreover, the “MG intermediate remaining in simulated GI fluids” value in data set [2] (after 2 h) was “more than half”.

Regarding `CO[C@]12CC[C@@]3(C[C@@H]1[C@](C)(O)C(C)(C)C)[C@H]1Cc4ccc(OC(=O)CC(C)(C)c5c(C)cc(C)cc5OC(=O)CC(C)CC(=O)OC(CO)CO)c5c4[C@@]3(CCN1CC1CC1)[C@H]2O5` (stereo partly drawn) [BUP-TML-C5bMe-MG], the “BUP-linker-acid form detected in plasma” value in data set [1] was “no BUP-linker-acid forms were detected”. In data set [2] (at the end of the 3 h incubation, relative peak area), the “MG intermediate remaining in SIF” value is on record as “more than 80%”.
